Assay results from patent US20240325404A1, “TREATMENT OF INFLAMMATORY DISEASES” (Galapagos NV, priority 2021, published 2024).
Entries after “also recorded” stand apart in the source; their conditions may differ.

Columns and labels:
CYP3A4 = CYP3A4 (Homo sapiens, UniProt P08684); experiment: clinical; conditions: in vivo
Experimental: On Days 1 and 7, single dose of 2 mg MDZ as commercially available liquid formulation, containing 2 mg/mL MDZ administered orally under fed conditions.

IL6/pSTAT3 pathway = experiment: MDZ DDI study ex vivo IL6/pSTAT3 in CD4+ T-cells; conditions: 150 mg q.d., Day 6, ex vivo stimulation of whole blood
IL2/pSTAT5 pathway = experiment: MDZ DDI study ex vivo IL2/pSTAT5 in CD4+ T-cells; conditions: 150 mg q.d., Day 6, ex vivo stimulation of whole blood
IL6/pSTAT1 pathway = experiment: MDZ DDI study ex vivo IL6/pSTAT1 in CD4+ T-cells; conditions: 150 mg q.d., Day 6, ex vivo stimulation of whole blood
IFN-α/pSTAT3 pathway = experiment: MDZ DDI study ex vivo IFN-α/pSTAT3 in CD4+ T-cells; conditions: 150 mg q.d., Day 6, ex vivo stimulation of whole blood
IFN-α/pSTAT1 pathway = experiment: MDZ DDI study ex vivo IFN-α/pSTAT1 in CD4+ T-cells; conditions: 150 mg q.d., Day 6, ex vivo stimulation of whole blood

CYP3A4, sequence (P08684 whole entry): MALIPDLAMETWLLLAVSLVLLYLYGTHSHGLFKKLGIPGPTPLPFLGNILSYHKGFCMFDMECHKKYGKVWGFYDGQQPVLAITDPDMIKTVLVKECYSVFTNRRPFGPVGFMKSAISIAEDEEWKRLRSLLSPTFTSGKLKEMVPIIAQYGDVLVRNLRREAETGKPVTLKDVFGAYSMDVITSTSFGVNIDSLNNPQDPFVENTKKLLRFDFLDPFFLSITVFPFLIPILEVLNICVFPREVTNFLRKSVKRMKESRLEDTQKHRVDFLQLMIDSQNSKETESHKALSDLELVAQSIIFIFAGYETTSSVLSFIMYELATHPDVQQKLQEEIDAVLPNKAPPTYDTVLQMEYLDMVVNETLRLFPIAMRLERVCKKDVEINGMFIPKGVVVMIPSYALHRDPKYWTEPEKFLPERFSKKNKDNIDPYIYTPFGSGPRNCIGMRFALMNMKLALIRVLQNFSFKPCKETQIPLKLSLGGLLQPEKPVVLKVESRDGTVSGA

SMILES | AUC(0-inf) (CYP3A4) [ng·h/mL] | Cmax (CYP3A4) [ng/mL] | MDZ AUC0-∞ LS Geometric Mean Ratio (90% CI) (CYP3A4) | AUC(0-inf) (CYP3A4; po, 2 mg) [ng·h/mL] | Cmax (CYP3A4; po, 2 mg) [ng/mL] | effect on IL6/pSTAT3 pathway (IL6/pSTAT3 pathway) | effect on IL2/pSTAT5 pathway (IL2/pSTAT5 pathway) | effect on IL6/pSTAT1 pathway (IL6/pSTAT1 pathway) | effect on IFN-α/pSTAT3 pathway (IFN-α/pSTAT3 pathway) | effect on IFN-α/pSTAT1 pathway (IFN-α/pSTAT1 pathway)
Cc1ncc2n1-c1ccc(Cl)cc1C(c1ccccc1F)=NC2 [MDZ, midazolam] | 27.9 | 6.24 | 121 (109; 133) % | 23.5 | 5.95 | – | – | – | – | –
Cc1cc(C#N)ncc1Oc1cc(Nc2ccc(N3CCOCC3)nn2)c2ncn(C)c2n1 [Compound 1, 4-methyl-5-[3-methyl-7-[(6-morpholin-4-ylpyridazin-3-yl)amino]imidazo[4,5-b]pyridin-5-yl]oxypyridine-2-carbonitrile] | – | – | – | – | – | Day 1 and Day 6 values were similar; also recorded: no inhibition and no concentration-dependent effect | Day 1 and Day 6 values were similar; also recorded: no inhibition and no concentration-dependent effect | concentration-dependent inhibition | concentration-dependent inhibition | concentration-dependent inhibition
